# Reference: patent US10188661B2, “Topical dosage regimen” (Topokine Therapeutics, Inc., priority 2014, dated 2019)
# Read-outs that look alike come from different tables or passages of the source.
# Key:
# [1] = 91-day once-daily latanoprost ointment, plasma PK after last dose in minipigs; assay type: in vivo; details: both sexes, topical or ocular, 0.5 % w/w; minipig, topical (percutaneous) latanoprost; first-order fit of 24, 48, 72 h plasma values; read-out: terminal elimination half-life
# Description: A pharmacokinetic (PK) experiment was conducted on male and female minipigs (n=6 per sex). Ointment comprising latanoprost 0.5% w/w in a vehicle comprising petroleum jelly and isopropyl myristate was applied once daily for 91 days to skin over 10% of body surface area. After the last topical application, plasma PK was assessed by sampling all animals through 24 hours, and in 2 animals per sex over for an additional 48 hours.
# (See Sjoquist B et al., The pharmacokinetics of a new antiglaucoma drug, latanoprost, in the rabbit, Drug Metabol […] 1998; 26:745-754; and Sjoquist B and Stjernschantz J, Ocular and systemic pharmacokinetics of latanoprost in humans, Surv Ophthalmol 2002; 47:S6-S12).
# [2] = cited from earlier work
# [3] = system: subcutaneous fat; assay: 42-day once-daily topical latanoprost trial in minipigs: reduction of subcutaneous fat (microscopy, ImageJ); assay type: in vivo; details: minipig, 42 days
# Description: A randomized, placebo-controlled trial of topical latanoprost was conducted on male and female minipigs. Animals were randomized to no treatment, placebo (vehicle only), latanoprost 0.16%, or latanoprost 0.8% in an emulsion consisting essentially of water, poloxamer, lecithin, and isopropyl palmitate. The treatment was applied once daily to a 400 cm^2 area on the dorsum, with a semi-occlusive dressing. Treatment continued for 42 days.
# Animals received a full panel of local and systemic safety assessments over the course of the study. Plasma toxicokinetics (TK) were assessed at various timepoints. After 42 days of treatment, animals were sacrificed. Samples of skin and subcutaneous fat were dissected from the treatment area in a controlled fashion and submitted for microscopic examination by a veterinary pathologist who was not informed of the compound tested or its therapeutic purpose.
# Reduction of subcutaneous fat thickness was quantified using ImageJ software. In the high-dose group the mean reduction was 2.2 cubic centimeters of fat per 100 cm^2 of treated skin.
# [4] = system: excess submental fat; assay: Randomized, double-blind, placebo-controlled trial of topical latanoprost on the submental area; assay type: in vivo, human; details: adults, submental skin 50 cm^2, applied at bedtime, washed after 8-10 hours, 42 days
# Description: A randomized, double-blind, placebo-controlled trial of topical latanoprost applied to the submental area was conducted with adult men and women with excess submental fat. In one cohort, participants were randomized to receive latanoprost in an ethanol-based composition, or a matching placebo composition. In another cohort, participants were randomized to receive latanoprost in a petroleum jelly-based composition, or a matching placebo composition. The composition was applied at bedtime to a controlled 50 cm^2 area of submental skin. Participants were instructed to wash the 50 cm^2 area after 8-10 hours, so as to remove the composition. Treatment continued for 42 days.
# [5] = system: lower lid steatoblepharon; assay: Randomized, double-masked, placebo-controlled trial of latanoprost ointment on lower eyelids (steatoblepharon); assay type: in vivo, human; details: adults, lower eyelids once nightly, washed after 8-10 hours, 10 weeks
# Description: A randomized, double-masked, placebo-controlled trial of latanoprost ointment applied to lower eyelids was conducted with adult men and women with lower lid steatoblepharon, i.e., eye bags. Participants received a kit comprising a tube of latanoprost ointment and instructions to apply the topical composition to the lower eyelids once nightly at bedtime. Participants were instructed to wash the lower eyelids 8-10 hours after ointment application, so as to remove the ointment or residue thereof. Treatment continued for 10 weeks.
# [6] = humans; cited from earlier work
half-life [1],SMILES,half-life ([2]; after intravenous administration),half-life ([2]; after ocular administration),half-life ([2]; latanoprost administered intravenously or ophthalmically),subcutaneous fat on microscopic examination ([3]; 0.16% and 0.8% once daily),mean reduction of subcutaneous fat ([3]; high-dose group),tolerability [4],tolerability [5],half-life in plasma [6]
1080 to 1440 min,O=C(O)CCC/C=C\C[C@@H]1[C@@H](CC[C@@H](O)CCc2ccccc2)[C@H](O)C[C@@H]1O [latanoprost free acid],9 to 17 min,17 to 85 min,9 to 85 min,–,–,–,–,–
–,CC(C)OC(=O)CCC/C=C\C[C@@H]1[C@@H](CC[C@@H](O)CCc2ccccc2)[C@H](O)C[C@@H]1O [latanoprost],–,–,–,Dose-dependent depletion of subcutaneous fat,2.2 cubic centimeters of fat per 100 cm^2 of treated skin,well tolerated,well tolerated,about 17 minutes
